Experimental data from US11447503B2, “Pyridine carbamates and their use as GLUN2B receptor modulators” (JANSSEN PHARMACEUTICA NV, priority 2019, dated 2022).

target: human GluN1/GluN2B NMDA receptors (Homo sapiens, UniProt Q05586+Q13224); assay: Cell-based calcium flux (FLIPR) assay on cloned human GluN1/GluN2B ion channels expressed in mammalian cells; details: standard assay; glutamate ~EC40, 10 μM glycine; stable Tet-On cell line
Procedure, shortened: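 Tet-On-induced stable cells expressing human GluN1/GluN2B, Calcium 5 dye. Compounds preincubated 5 min (agonist check), then glutamate at ~EC40 plus 10 μM glycine added for 5 min; Mg2+ and buffer composition differ between standard and HTS formats. FLIPR Tetra fluorescence normalised to control wells; (+)MK-801 as antagonist control.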

Sequence of human GluN1/GluN2B NMDA receptors (Q13224 27-1484, other chains not shown): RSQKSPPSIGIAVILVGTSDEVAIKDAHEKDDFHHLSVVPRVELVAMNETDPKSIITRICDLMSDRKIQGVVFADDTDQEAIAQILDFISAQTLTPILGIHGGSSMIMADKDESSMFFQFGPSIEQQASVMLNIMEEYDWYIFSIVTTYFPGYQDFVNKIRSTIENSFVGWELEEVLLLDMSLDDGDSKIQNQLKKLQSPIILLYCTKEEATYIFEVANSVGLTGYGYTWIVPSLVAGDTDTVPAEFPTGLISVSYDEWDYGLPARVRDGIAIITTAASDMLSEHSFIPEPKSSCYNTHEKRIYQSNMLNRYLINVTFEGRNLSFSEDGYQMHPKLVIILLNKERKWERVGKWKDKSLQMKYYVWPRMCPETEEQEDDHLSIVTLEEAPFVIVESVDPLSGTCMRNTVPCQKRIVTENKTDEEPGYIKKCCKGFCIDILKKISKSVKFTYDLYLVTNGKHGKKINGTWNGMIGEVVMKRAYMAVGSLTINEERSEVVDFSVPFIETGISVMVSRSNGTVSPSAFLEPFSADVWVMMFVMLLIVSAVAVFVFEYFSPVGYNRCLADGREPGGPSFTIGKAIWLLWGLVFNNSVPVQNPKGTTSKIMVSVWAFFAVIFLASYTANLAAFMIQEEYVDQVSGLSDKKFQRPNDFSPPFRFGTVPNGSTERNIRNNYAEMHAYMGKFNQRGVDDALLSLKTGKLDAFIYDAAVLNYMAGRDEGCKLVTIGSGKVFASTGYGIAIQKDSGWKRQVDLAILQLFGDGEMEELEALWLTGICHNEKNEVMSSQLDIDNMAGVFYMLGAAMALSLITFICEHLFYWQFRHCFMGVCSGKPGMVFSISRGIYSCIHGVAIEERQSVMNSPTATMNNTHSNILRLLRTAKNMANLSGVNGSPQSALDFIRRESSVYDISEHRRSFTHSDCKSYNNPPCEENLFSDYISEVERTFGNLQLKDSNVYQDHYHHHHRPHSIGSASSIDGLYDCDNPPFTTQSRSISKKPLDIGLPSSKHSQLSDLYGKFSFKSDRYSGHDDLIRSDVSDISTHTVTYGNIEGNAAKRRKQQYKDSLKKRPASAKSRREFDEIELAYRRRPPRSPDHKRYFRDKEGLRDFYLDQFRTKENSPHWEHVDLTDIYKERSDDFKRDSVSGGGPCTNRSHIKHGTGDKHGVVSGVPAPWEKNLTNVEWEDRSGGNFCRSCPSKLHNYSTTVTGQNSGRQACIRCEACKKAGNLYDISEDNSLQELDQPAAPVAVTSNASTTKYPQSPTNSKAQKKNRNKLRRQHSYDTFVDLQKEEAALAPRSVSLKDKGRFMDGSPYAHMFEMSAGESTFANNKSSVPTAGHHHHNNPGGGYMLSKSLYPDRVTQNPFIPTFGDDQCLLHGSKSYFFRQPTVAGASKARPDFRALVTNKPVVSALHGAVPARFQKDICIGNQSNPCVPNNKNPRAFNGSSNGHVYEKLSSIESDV

SMILES	IC50 [nM]
COc1ncc(-c2cc(F)cc(C)c2F)cc1CN1CCOC1=O [Example 114, 3-[[5-(2,5-Difluoro-3-methyl-phenyl)-2-methoxy-3-pyridyl]methyl] oxazolidin-2-one]	542
COc1ncc(-c2ccc(F)c(OC(F)F)c2)cc1CN1C(=O)OC[C@@H]1C [Example 117, (4S)-3-[[5-[3-(Difluoromethoxy)-4-fluoro-phenyl]-2-methoxy-3-pyridyl]methyl]-4-methyl-oxazolidin-2-one]	60
COc1ncc(-c2ccc(F)c(C(F)F)c2)cc1CN1C(=O)OC[C@@H]1C [Example 120, (4S)-3-[[5-[3-(Difluoromethyl)-4-fluoro-phenyl]-2-methoxy-3-pyridyl]methyl]-4-methyl-oxazolidin-2-one]	121
O=C1OCCCN1Cc1cc(-c2ccc(F)c(C(F)F)c2)cnc1C(F)F [Example 123, 3-[[2-(Difluoromethyl)-5-[3-(difluoromethyl)-4-fluoro-phenyl]-3-pyridyl]methyl]-1,3-oxazinan-2-one]	63
O=C1OCCN1Cc1cc(-c2ccc(F)c(C(F)F)c2)cnc1C(F)F [Example 124, 3-[[2-(Difluoromethyl)-5-[3-(difluoromethyl)-4-fluoro-phenyl]-3-pyridyl]methyl]oxazolidin-2-one]	56
Cc1cc(-c2cnc(C(F)F)c(CN3CCCOC3=O)c2)ccc1F [Example 127, 3-[[2-(Difluoromethyl)-5-(4-fluoro-3-methyl-phenyl)-3-pyridyl]methyl]-1,3-oxazinan-2-one]	276
Cc1cc(-c2cnc(C(F)F)c(CN3CCOC3=O)c2)ccc1F [Example 128, 3-[[2-(Difluoromethyl)-5-(4-fluoro-3-methyl-phenyl)-3-pyridyl]methyl]oxazolidin-2-one]	204
O=C1OCCCN1Cc1cc(-c2ccc(Cl)c(OC(F)F)c2)cnc1C(F)F [Example 129, 3-[[5-[4-Chloro-3-(difluoromethoxy)phenyl]-2-(difluoromethyl)-3-pyridyl]methyl]-1,3-oxazinan-2-one]	59

Stronger by IC50, values ahead:

IC50 [nM]	SMILES
10	COc1ncc(-c2ccc(Cl)c(C(F)F)c2)cc1CN1CCOC1=O [Example 115, 3-[[5-[4-Chloro-3-(difluoromethyl)phenyl]-2-methoxy-3-pyridyl]methyl]oxazolidin-2-one]
18	COc1ncc(-c2ccc(F)c(C)c2)cc1CN1CCOC1=O [Example 116, 3-[[5-(4-Fluoro-3-methyl-phenyl)-2-methoxy-3-pyridyl]methyl]oxazolidin-2-one]
26	COc1ncc(-c2ccc(F)c(OC(F)F)c2)cc1CN1C(=O)OC[C@H]1C [Example 118, (4R)-3-[[5-[3-(Difluoromethoxy)-4-fluoro-phenyl]-2-methoxy-3-pyridyl]methyl]-4-methyl-oxazolidin-2-one]
12	COc1ncc(-c2ccc(F)c(OC(F)F)c2)cc1CN1CCOC1=O [Example 119, 3-[[5-[3-(Difluoromethoxy)-4-fluoro-phenyl]-2-methoxy-3-pyridyl]methyl]oxazolidin-2-one]
21	COc1ncc(-c2ccc(F)c(C(F)F)c2)cc1CN1C(=O)OC[C@H]1C [Example 121, (4R)-3-[[5-[3-(Difluoromethyl)-4-fluoro-phenyl]-2-methoxy-3-pyridyl]methyl]-4-methyl-oxazolidin-2-one]
15	COc1ncc(-c2ccc(F)c(C(F)F)c2)cc1CN1CCOC1=O [Example 122, 3-[[5-[3-(Difluoromethyl)-4-fluoro-phenyl]-2-methoxy-3-pyridyl]methyl]oxazolidin-2-one]
39	O=C1OCCN1Cc1cc(-c2ccc(F)c(OC(F)F)c2)cnc1C(F)F [Example 125, 3-[[5-[3-(Difluoromethoxy)-4-fluoro-phenyl]-2-(difluoromethyl)-3-pyridyl]methyl]oxazolidin-2-one]
19	O=C1OCCCN1Cc1cc(-c2ccc(F)c(OC(F)F)c2)cnc1C(F)F [Example 126, 3-[[5-[3-(Difluoromethoxy)-4-fluoro-phenyl]-2-(difluoromethyl)-3-pyridyl]methyl]-1,3-oxazinan-2-one]
